From DBAASP
≈ marks a conversion by molar mass, not a printed value. Blank lines part the entries; values can stand above or below the molecule they belong to.

How the values were obtained:
Experiment in all cases: ≥ marks a high value that may be exact or a test limit, other limits are often not marked, values filed in µg/mL are converted to µM
[1] = system: Acinetobacter baumannii ATCC 19606
[2] = system: Pseudomonas aeruginosa ATCC 47085
[3] = system: Escherichia coli D31 CGSC 5165
[4] = system: Staphylococcus aureus ATCC 35556
[5] = system: Staphylococcus aureus SH1000
[6] = system: Staphylococcus aureus ATCC 25923
[7] = system: Bacillus subtilis ATCC 9372
[8] = system: Salmonella typhimurium ATCC 50013
[9] = system: Shigella dysenteriae ATCC 51302
[10] = system: Streptococcus pneumoniae ATCC 49619
[11] = system: Pseudomonas aeruginosa ATCC 27853
[12] = system: Escherichia coli ATCC 25922
[13] = system: Proteus mirabilis W03VA1144
[14] = system: Burkholderia cepacia SMC 71
[15] = system: Klebsiella pneumoniae
[16] = system: Klebsiella oxytoca W99FI00049
[17] = system: Staphylococcus aureus MIU-68A
[18] = system: Serratia marcescens W99FI0111
[19] = system: Citrobacter freundii W99FI00007
[20] = system: Stenotrophomonas maltophilia PT4/99
[21] = system: Acinetobacter baumannii AB1MG
[22] = system: Pseudomonas aeruginosa 891
[23] = system: Pseudomonas aeruginosa VA463/98
[24] = system: Escherichia coli
[25] = system: Acinetobacter baumannii AB7MG
[26] = system: Elizabethkingia meningoseptica CCUG 4310
[27] = system: Pseudomonas aeruginosa 885149
[28] = system: Klebsiella aerogenes W03BG0067
[29] = system: Enterobacter cloacae W03AN0041
[30] = system: Providencia stuartii W03FI0001
[31] = system: Morganella morganii W03VA1342
[32] = system: Proteus mirabilis W99FI0089
[33] = system: Staphylococcus aureus ATCC 29213
[34] = system: Shigella flexneri CICC 21534
[35] = system: Salmonella typhimurium SL1344
[36] = system: Listeria monocytogenes CICC 21533
[37] = system: Bacillus subtilis CICC 24434
[38] = system: Staphylococcus epidermidis LY8
[39] = system: Pasteurella multocida C48-3
[40] = system: Salmonella enterica subsp. enterica serovar Choleraesuis C78-1
[41] = system: Escherichia coli E44813

Structure (SMILES): CC[C@H](C)[C@H](NC(=O)[C@H](CCCCN)NC(=O)CNC(=O)[C@H](CC(C)C)NC(=O)[C@@H](NC(=O)[C@H](C)NC(=O)[C@H](CCCCN)NC(=O)CNC(=O)[C@H](C)NC(=O)CNC(=O)[C@H](CCCCN)NC(=O)[C@H](CCSC)NC(=O)[C@H](CCCCN)NC(=O)[C@@H](NC(=O)[C@H](Cc1c[nH]c2ccccc12)NC(=O)[C@H](CC(C)C)NC(=O)[C@H](CCC(N)=O)NC(=O)[C@H](CCCCN)NC(=O)[C@H](CC(C)C)NC(=O)[C@@H](N)CC(C)C)[C@@H](C)O)C(C)C)C(=O)N[C@@H](CCCCN)C(=O)NCC(=O)N[C@@H](CC(C)C)C(=O)N[C@@H](CC(C)C)C(=O)O [LLKQLWTKMKGAGKAVLGKIKGLL]
MIC [1]: 0.94 µM (≈ 2.44 µg/mL)
MIC [2]: 7.5 µM (≈ 19.5 µg/mL)
MIC [3]: 0.94 µM (≈ 2.44 µg/mL)
MIC [4]: 1.88 µM (≈ 4.88 µg/mL)

Structure (SMILES): CC(C)C[C@H](NC(=O)[C@@H](NC(=O)CNC(=O)[C@H](C)NC(=O)[C@H](CC(C)C)NC(=O)[C@H](CS)NC(=O)[C@H](CCCN=C(N)N)NC(=O)[C@H](C)NC(=O)[C@H](CC(C)C)NC(=O)CN)[C@@H](C)O)C(=O)O [GLARCLAGTL]
MIC [6]: 65.7 µM (≈ 64 µg/mL)
MIC [7]: 8.21 µM (≈ 8 µg/mL)
MIC [8]: 16.4 µM (≈ 16 µg/mL)
MIC [9]: 16.4 µM (≈ 16 µg/mL)
MIC [10]: 16.4 µM (≈ 16 µg/mL)
MIC [11]: 8.21 µM (≈ 8 µg/mL)
MIC [12]: 8.21 µM (≈ 8 µg/mL)

Structure (SMILES): CC[C@H](C)[C@H](NC(=O)[C@H](CCCCN)NC(=O)[C@H](CCCCN)NC(=O)[C@@H](N)CCC(N)=O)C(=O)N[C@@H](CCCN=C(N)N)C(=O)N[C@H](C(=O)N[C@@H](CCCN=C(N)N)C(=O)N[C@@H](CC(C)C)C(=O)N[C@@H](CO)C(=O)N[C@@H](C)C(=O)O)C(C)C [QKKIRVRLSA]
MIC [6]: > 107 µM
MIC [13]: ≥ 53.4 µM
MIC [14]: ≥ 53.4 µM
MIC [15]: 6.68 µM (≈ 8 µg/mL)
MIC [16]: ≥ 53.4 µM
MIC [17]: ≥ 107 µM
MIC [18]: ≥ 107 µM
MIC [19]: 13.4 µM (≈ 16 µg/mL)
MIC [20]: ≥ 107 µM
MIC [21]: 13.4 µM (≈ 16 µg/mL)
MIC [22]: 6.68 µM (≈ 8 µg/mL)
MIC [23]: 3.34 µM (≈ 4 µg/mL)
MIC [24]: 6.68 µM (≈ 8 µg/mL)
MIC [25]: 26.7 µM (≈ 32 µg/mL)
MIC [26]: ≥ 107 µM
MIC [11]: 3.34 µM (≈ 4 µg/mL)
MIC [27]: 6.68 µM (≈ 8 µg/mL)
MIC [28]: 6.68 µM (≈ 8 µg/mL)
MIC [29]: 3.34 µM (≈ 4 µg/mL)
MIC [12]: 3.34 µM (≈ 4 µg/mL)
MIC [30]: ≥ 107 µM
MIC [31]: ≥ 107 µM
MIC [32]: ≥ 107 µM
MIC [33]: > 53.4 µM

The next lines start with results.

MIC [5]: ≥ 100 µM
Structure (SMILES): CC[C@H](C)[C@H](NC(=O)[C@H](CC(=O)O)NC(=O)[C@H](Cc1ccccc1)NC(=O)[C@H](CC(C)C)NC(=O)CN)C(=O)N[C@H](C(=O)N[C@@H](CCCCN)C(=O)N[C@@H](CCCCN)C(=O)N[C@@H](CC(C)C)C(=O)N[C@@H](CC(C)C)C(=O)N[C@@H](CCCCN)C(=O)N[C@@H](CC(C)C)C(=O)N[C@@H](CC(C)C)C(=O)N[C@@H](CCCCN)C(N)=O)C(C)C [GLFDIVKKLLKLLK]

MIC [6]: 0.0041 µM (≈ 0.0124 µg/mL)
MIC [34]: 24.9 µM (≈ 75 µg/mL)
MIC [35]: 0.259 µM (≈ 0.78 µg/mL)
MIC [36]: 20.7 µM (≈ 62.5 µg/mL)
MIC [37]: 0.259 µM (≈ 0.78 µg/mL)
MIC [38]: 4.14 µM (≈ 12.5 µg/mL)
MIC [39]: 0.259 µM (≈ 0.78 µg/mL)
MIC [41]: 2.07 µM (≈ 6.25 µg/mL)
Structure (SMILES): CC[C@H](C)[C@H](NC(=O)[C@@H](NC(=O)[C@H](Cc1ccccc1)NC(=O)[C@H](CCCCN)NC(=O)[C@@H]1CCCN1C(=O)[C@H](CCCCN)NC(=O)[C@H](CCC(N)=O)NC(=O)[C@@H]1CCCN1C(=O)[C@H](CCCN=C(N)N)NC(=O)[C@H](CCCN=C(N)N)NC(=O)[C@@H](NC(=O)[C@H](CCCN=C(N)N)NC(=O)[C@H](Cc1c[nH]c2ccccc12)NC(=O)[C@H](CC(C)C)NC(=O)[C@H](CCCN=C(N)N)NC(=O)[C@H](CC(=O)O)NC(=O)[C@@H](NC(=O)[C@@H](NC(=O)[C@@H](N)CCCN=C(N)N)[C@@H](C)CC)[C@@H](C)CC)C(C)C)C(C)C)C(=O)N[C@H](C(=O)N[C@@H](Cc1c[nH]c2ccccc12)C(=O)N[C@H](C(=O)N[C@@H](CCCN=C(N)N)C(=O)O)C(C)C)C(C)C [RIIDRLWRVRRPQKPKFVIVWVR]
MIC [40]: 0.129 µM (≈ 0.39 µg/mL)
